# Legend:
# Type in all cases: cell-based, Echinococcus canadensis
# Eca-5-HT1a [1] = assay: FLIPR calcium assay, agonist concentration-response
# Eca-5-HT1a [2] = system: T1, Eca-5-HT1a; assay: FLIPR calcium assay on mutant receptor
# T1 construct: full-length mutant in HEK293-Gα15 cells
# Eca-5-HT1a [3] = system: T2, Eca-5-HT1a; assay: FLIPR calcium assay (Fluo-4), HEK293-GNA15 cells transiently expressing the receptor; a stable line gave EC50 […]
# T2 construct: full-length, human codon optimized cDNA in HEK293-GNA15 cells
SMILES,EC50 (Eca-5-HT1a [1]) [µM],EC50 (Eca-5-HT1a [2]) [µM],EC50 (Eca-5-HT1a [3]) [µM]
"COc1ccc2[nH]cc(CCN)c2c1 [5-MTT, 5-methoxytryptamine]",0.098 ± 0.05,,
NCCc1c[nH]c2ccc(O)cc12 [serotonin],,11.5,0.00774 ± 0.00063
"CC(N)Cc1c[nH]c2ccc(O)cc12 (stereo not drawn) [α-MTS, α-methylserotonin]",2.73 ± 0.73,,

# — PMC8584985, “Characterization of a new type of neuronal 5-HT G- protein coupled receptor in the cestode nervous system” (PLoS ONE, 2021)
